# Reference: patent US11667602B2, “Compounds and their use” (AstraZeneca AB, priority 2020, dated 2023)
# Like-named read-outs stand apart in the source and are kept apart here.
# Legend:
# [1] = Human Plasma Protein Binding (Test B); type: in vitro ADME; details: fraction unbound (fu)
# Summary of the method: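 Values given as % free (fu) in human plasma, using the method of Wernevik et al. (2020). For compounds tested more than once, the arithmetic mean is given.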
# [2] = Human Liver Microsomal Stability (Test C); type: in vitro ADME
# Summary of the method: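 CLint (μl/min/mg protein) derived from compound depletion in human liver microsomes following a published standardized early-DMPK protocol; replicate determinations given as arithmetic mean.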
# [3] = Rat Hepatocyte Stability (Test E); type: in vitro ADME; details: geometric mean if run multiple times
# Summary of the method: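 Intrinsic clearance in rat hepatocytes, expressed as μl/min/10^6 cells, following the literature integrated DMPK panel method. Repeat determinations combined as geometric mean.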
# Solubility (Test F) = type: physicochemical; details: arithmetic mean if run multiple times
# Protocol: The assay was conducted according to the Solubility Assay described in pages 164-167 of Wernevik, J. et al., “A Fully Integrated Assay Panel for Early Drug Metabolism and Pharmacokinetics Profiling”, Assay and Drug Development Technologies, 2020, 18(4), 157-179. Data are reported in Table 36 as solubility ([…]. Where the assay was run multiple times for the same compound, the arithmetic mean is reported.
# human RXFP1 = target: T1, human RXFP1 (Homo sapiens, UniProt Q9HBX9); test: RXFP1 Hu cAMP (Test A); type: cell-based; set-up: expressed in transfected cells; host or cells: Jump-In T-REx CHO-K1 cells (ThermoFisher), induced with 10 ng/ml doxycycline for 24 h
# T1 sequence (Q9HBX9 1-757): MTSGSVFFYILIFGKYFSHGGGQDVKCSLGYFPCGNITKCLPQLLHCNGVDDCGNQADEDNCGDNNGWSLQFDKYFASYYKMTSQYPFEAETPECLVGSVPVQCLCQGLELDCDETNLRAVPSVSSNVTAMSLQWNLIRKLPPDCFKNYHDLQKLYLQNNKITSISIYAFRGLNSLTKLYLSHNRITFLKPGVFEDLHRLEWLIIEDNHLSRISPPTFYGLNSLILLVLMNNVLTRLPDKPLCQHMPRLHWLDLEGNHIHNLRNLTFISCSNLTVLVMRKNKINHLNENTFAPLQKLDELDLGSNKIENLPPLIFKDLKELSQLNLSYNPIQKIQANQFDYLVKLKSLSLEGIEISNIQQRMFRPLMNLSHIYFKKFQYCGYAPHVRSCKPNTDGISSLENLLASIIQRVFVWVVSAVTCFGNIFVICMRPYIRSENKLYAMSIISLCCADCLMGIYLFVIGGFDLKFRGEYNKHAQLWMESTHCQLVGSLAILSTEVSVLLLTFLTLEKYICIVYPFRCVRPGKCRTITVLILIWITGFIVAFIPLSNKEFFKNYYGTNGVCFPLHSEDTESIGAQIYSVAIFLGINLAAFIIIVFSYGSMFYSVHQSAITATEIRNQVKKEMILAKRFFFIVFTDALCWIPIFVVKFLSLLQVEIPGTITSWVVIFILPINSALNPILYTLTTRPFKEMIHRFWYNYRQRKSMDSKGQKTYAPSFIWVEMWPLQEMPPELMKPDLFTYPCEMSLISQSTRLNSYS
# Summary of the method: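 Read-out is HTRF signal, inversely proportional to cAMP, converted to cAMP amount by standard curve. Stimulation occurred in inducible CHO-K1 cells expressing the human receptor with phosphodiesterases blocked by 0.5 mM IBMX.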
# [4] = RXFP1 Hu cAMP, read-out: Test A EC50
SMILES,Test B Human Plasma Protein Binding (% free) [1] [% free],"microsomal CLint ([2]; human, liver microsomes) [µL/min/mg]","hepatocyte CLint ([3]; rat, hepatocytes) [µL/min/1e6 cells]",solubility (Solubility (Test F)) [µM],Test A Sinf (human RXFP1; RXFP1 Hu cAMP) [%],EC50 (human RXFP1; [4]) [µM],microsomal CLint ([2]; human liver microsomes) [µL/min/mg],hepatocyte CLint ([3]; rat hepatocytes) [µL/min/1e6 cells],"EC50 (human RXFP1; Test A EC50, RXFP1 Hu cAMP) [µM]"
COc1cc(F)c(O[C@H]2CC[C@@H](C(=O)O)CC2)cc1C(=O)N[C@@H]1[C@H]2CC[C@H](C2)[C@@H]1C(=O)Nc1cccc(Cl)c1 [Example 25],0.59,31,130,440,102,0.42,–,–,–
"COc1cc(F)c(O[C@H]2CC[C@@H](C(=O)O)CC2)cc1C(=O)N[C@@H]1[C@H]2CC[C@H](C2)[C@@H]1C(=O)Nc1ccc(C#N)c(Br)c1 [Example 27, (1S,4s)-4-(5-(((1S,2R,3S,4R)-3-((3-Bromo-4-cyanophenyl)carbamoyl)bicyclo[2.2.1]heptan-2-yl)carbamoyl)-2-fluoro-4-methoxyphenoxy)cyclohexane-1-carboxylic acid]",0.40,29,> 300,990,88,0.13,–,–,–
COc1cc(F)c(O[C@H]2CC[C@@H](C(=O)O)CC2)cc1C(=O)N[C@@H]1[C@H]2CC[C@H](C2)[C@@H]1C(=O)Nc1ccc(C#N)c(C(F)(F)F)c1 [Example 28],0.94,–,–,690,96,–,32,51,0.044
COc1cc(F)c(O[C@H]2CC[C@@H](C(=O)O)CC2)cc1C(=O)N[C@@H]1[C@H]2CC[C@H](C2)[C@@H]1C(=O)Nc1cc(F)cc(C(F)(F)F)c1 [Example 29],0.72,22,22,130,111,0.11,–,–,–
"COc1cc(F)c(O[C@H]2CC[C@@H](C(=O)O)CC2)cc1C(=O)N[C@@H]1[C@H]2CC[C@H](C2)[C@@H]1C(=O)Nc1cc(Cl)cnn1 [Example 30, (1S,4s)-4-(5-(((1S,2R,3S,4R)-3-((5-Chloropyridazin-3-yl)carbamoyl)bicyclo[2.2.1]heptan-2-yl)carbamoyl)-2-fluoro-4-methoxyphenoxy)cyclohexane-1-carboxylic acid]",3.6,< 3,18,> 1000,–,> 40,–,–,–
COc1cc(F)c(O[C@H]2CC[C@@H](C(=O)O)CC2)cc1C(=O)N[C@@H]1[C@H]2CC[C@H](C2)[C@@H]1C(=O)Nc1cc(C(F)(F)F)ncn1 [Example 31],3.7,18,13,940,81,0.75,–,–,–
COc1cc(F)c(O[C@H]2CC[C@@H](C(=O)O)CC2)cc1C(=O)N[C@@H]1[C@H]2CC[C@H](C2)[C@@H]1C(=O)Nc1nccc(C(F)(F)F)n1 [Example 32],13,10,26,> 1000,100,> 40,–,–,–
"COc1cc(F)c(O[C@H]2CC[C@@H](C(=O)O)CC2)cc1C(=O)N[C@@H]1[C@H]2CC[C@H](C2)[C@@H]1C(=O)NC1CC(F)(F)C1 [Example 33, (1S,4s)-4-(5-(((1S,2R,3S,4R)-3-((3,3-Difluorocyclobutyl)carbamoyl)bicyclo[2.2.1]heptan-2-yl)carbamoyl)-2-fluoro-4-methoxyphenoxy)cyclohexane-1-carboxylic acid]",15,< 3,110,> 1000,88,> 5,–,–,–
COc1cc(F)c(O[C@H]2CC[C@@](C)(C(=O)O)CC2)cc1C(=O)N[C@@H]1[C@H]2CC[C@H](C2)[C@@H]1C(=O)NCC1(C)CC1 [Example 41],8,8.9,21,820,114,> 5.5,–,–,–
COc1cc(F)c(O[C@H]2CC[C@@](C)(C(=O)O)CC2)cc1C(=O)N[C@@H]1[C@H]2CC[C@H](C2)[C@@H]1C(=O)N[C@@H](C)C(C)C [Example 42],5.4,< 3,19,> 1000,95,–,–,–,–
COc1cc(F)c(O[C@H]2CC[C@@](C)(C(=O)O)CC2)cc1C(=O)N[C@@H]1[C@H]2CC[C@H](C2)[C@@H]1C(=O)N[C@H](C)C(C)C [Example 46],7.6,12,12,380,104,0.071,–,–,–
COc1cc(F)c(O[C@H]2CC[C@@](C)(C(=O)O)CC2)cc1C(=O)N[C@@H]1[C@H]2CC[C@H](C2)[C@@H]1C(=O)NCC1(CF)CC1 [Example 48],13,< 3,18,1000,96,0.38,–,–,–
"COc1cc(F)c(O[C@H]2CC[C@@H](C(=O)O)CC2)cc1C(=O)N[C@H]1[C@@H](C(=O)Nc2ccc(F)c(C(F)(F)F)c2)[C@H]2CC[C@@H]1O2 [Example 49, (1R,4s)-4-(2-Fluoro-5-(((1S,2S,3R,4R)-3-((4-fluoro-3-(trifluoromethyl)phenyl)carbamoyl)-7-oxabicyclo[2.2.1]heptan-2-yl)carbamoyl)-4-methoxyphenoxy)cyclohexane-1-carboxylic acid]",3.2,< 3,< 1,24,–,> 50,–,–,–
"COc1cc(F)c(O[C@H]2CC[C@@H](C(=O)O)CC2)cc1C(=O)N[C@@H]1[C@H](C(=O)Nc2ccc(F)c(C(F)(F)F)c2)[C@@H]2CC[C@H]1O2 [Example 50, (1S,4s)-4-(2-Fluoro-5-(((1R,2R,3S,4S)-3-((4-fluoro-3-(trifluoromethyl)phenyl)carbamoyl)-7-oxabicyclo[2.2.1]heptan-2-yl)carbamoyl)-4-methoxyphenoxy)cyclohexane-1-carboxylic acid]",1.9,< 3,< 1,60,–,> 50,–,–,–
"COc1cc(F)c(O[C@H]2CC[C@@](C)(C(=O)O)CC2)cc1C(=O)N[C@@H]1CC[C@@H]1C(=O)Nc1ccc(F)c(C(F)(F)F)c1 [Example 51, (1S,4s)-4-(2-Fluoro-5-(((1R,2S)-2-((4-fluoro-3-(trifluoromethyl)phenyl)carbamoyl)cyclobutyl)carbamoyl)-4-methoxyphenoxy)-1-methylcyclohexane-1-carboxylic acid]",0.50,8.5,55,170,112,0.058,–,–,–
"COc1cc(F)c(O[C@H]2CC[C@@](C)(C(=O)O)CC2)cc1C(=O)N[C@@H]1COC[C@@H]1C(=O)Nc1ccc(F)c(C(F)(F)F)c1 [Example 52, (1R,4s)-4-(2-fluoro-5-(((3S,4R)-4-((4-fluoro-3-(trifluoromethyl)phenyl)carbamoyl)tetrahydrofuran-3-yl)carbamoyl)-4-methoxyphenoxy)-1-methylcyclohexane-1-carboxylic acid]",0.94,13,34,890,108,–,–,–,–
